Laboratory results as given in US7772230B2, “Chroman compound, processes for its preparation, and its pharmaceutical use” (China Pharmaceutical University, priority 2006, dated 2010).

Legend:
[1] = molecular target: T1, slowly delayed rectifier potassium channel current (IKs) (Cavia porcellus, UniProt O70344); assay: whole cell patch clamp on isolated Guinea pig myocardial cells, IKs; assay type: cell-based; details: Guinea pig ventricular myocytes, current recorded 10 min after administration, 25-30° C.
T1 construct: the Guinea pig myocardial cells are separated with enzymolysis; endogenous in cells; host or cells: freshly isolated guinea pig ventricular myocytes
T1 sequence (O70344 1-671): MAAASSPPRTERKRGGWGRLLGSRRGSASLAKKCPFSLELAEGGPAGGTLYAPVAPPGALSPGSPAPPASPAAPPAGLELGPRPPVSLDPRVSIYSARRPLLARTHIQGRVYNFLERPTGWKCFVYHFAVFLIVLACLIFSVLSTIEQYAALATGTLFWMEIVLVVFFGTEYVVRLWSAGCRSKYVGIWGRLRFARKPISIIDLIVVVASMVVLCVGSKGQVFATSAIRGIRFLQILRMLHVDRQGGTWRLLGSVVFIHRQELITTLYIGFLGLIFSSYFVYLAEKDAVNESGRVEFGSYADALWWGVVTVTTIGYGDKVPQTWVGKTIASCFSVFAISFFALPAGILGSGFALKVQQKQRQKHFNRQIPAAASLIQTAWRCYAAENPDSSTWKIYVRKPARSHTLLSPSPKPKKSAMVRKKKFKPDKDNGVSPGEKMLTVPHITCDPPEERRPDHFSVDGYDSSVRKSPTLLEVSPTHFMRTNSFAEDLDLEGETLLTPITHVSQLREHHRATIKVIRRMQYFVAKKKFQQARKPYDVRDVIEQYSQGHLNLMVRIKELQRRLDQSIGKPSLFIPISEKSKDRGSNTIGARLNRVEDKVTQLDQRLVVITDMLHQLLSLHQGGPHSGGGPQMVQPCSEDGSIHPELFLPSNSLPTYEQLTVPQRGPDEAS
T1 sequence (P41686 1-245 partner): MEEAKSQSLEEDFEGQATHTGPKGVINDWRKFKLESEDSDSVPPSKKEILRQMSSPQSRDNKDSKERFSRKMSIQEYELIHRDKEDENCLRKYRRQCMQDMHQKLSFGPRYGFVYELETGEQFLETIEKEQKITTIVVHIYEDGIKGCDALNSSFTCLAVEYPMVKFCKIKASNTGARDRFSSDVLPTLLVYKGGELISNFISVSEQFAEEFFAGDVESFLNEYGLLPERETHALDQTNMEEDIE
Method: (§1) Experimental title: using vitro pachynsis myocardial cells of Guinea pig, the activity is determined by the whole cell membrane Patch clamp technology.
(§2) experimental mechanism: the Guinea pig myocardial cells are separated with enzymolysis, and the rapid activation component and the slowly activation component of the delayed commutating current in the cardiac muscle cells are recorded by whole cell membrane Patch clamp. Each compound is added to the perfuse liquid for measuring current after dissolved at least 10 min. The collected data is analyzed in pulse-fit, the IC50 value for IKr and IKs of each compound is calculated.
(§3) animals: Guinea pigs, male, weight 300-400 g.
(§4) solution: calcium free Tyrode's solution
(§5) pole inner solution (mmol/L): KCl 140, MgCl2 1.0, K2-ATP 4.0, EGTA 10, HEPES 5.0, pH=7.2
(§6) Experimental apparatus: Patch clamp magnifier (EPC-10, Germany), inverted microscope (TE-2000U, Nikon, Japan), microelectrode puller (PIP5, Germany), micro-manipulator (PCS-5000, Burleigh, USA).
(§7) Then, the hearts are taken off, their ventricle are cut to smash and incubated in fresh enzyme solution at 37° C., the solution is gently stirred for 5-10 min, pouring off the supernatant fluid, diluted with Tyrode's solution containing CaCl2 1 mmol/L, that is for the first cell stored liquor; with the same operation to obtain the second and the third cell storages. […] The cells are laid for 2 h before use.
(§8) the cell liquor is put into the cell pool, after the cells adhering to the wall, they are perfused with outer liquor of the cells at the rate of 2 ml/min, cells that having calcium resistance and clear transverse striations are to be selected, the poles are moved to the cell surface by tridimensional manipulator. The high resistance block are formed between the pole top and the cell surface by under pressure, and more over using reduced pressure to broking cell membrane, the pole inner liquor can be connected to the cell inner liquor so as to form the whole cell state. After the compensation to the capacitance and series impedance compensation the voltage tongs are recorded. The signal is led by Ag/AgCl pole and magnified by the Patch clamp magnifier, the computer dispenses presetting stimulate pulse by procedure and add to cells, and the electrical signal generated from cells is translated by transducer, and stored in computer. All of the stimulate signal control, electric current, data sampling and analyses are carried out by pulse V8.60. Azimilide is used as positive drugs in the research. Each test compound is dissolved in anhydrous ethanol, diluted to the same concentration by water, and added to outer cell liquor, the top concentration of ethanol is 0.1%.
(§9) Stimulate parameter: the record of IKr and IKS: the back value of the either current is recorded. Using extra-cellular fluid containing 0.1 mmol/L CdCl2 for perfusion, sustaining the voltage at −50 mV, depolarized to 60 mV, keeping for 500 ms, and sustaining the voltage at −50 mV, keeping for 1000 ms, recording IKr; and then binding the voltage at −50 mV for 1000 ms, recording IKs.

[2] = molecular target: T2, rapidly delayed rectifier potassium channel current (IKr) (Cavia porcellus, UniProt O08703); assay: whole cell patch clamp on isolated Guinea pig myocardial cells, IKr; assay type: cell-based; details: Guinea pig ventricular myocytes, current recorded 10 min after administration, 25-30° C.
T2 construct: the Guinea pig myocardial cells are separated with enzymolysis; endogenous in cells; host or cells: freshly isolated guinea pig ventricular myocytes
T2 sequence (O08703 1-1294): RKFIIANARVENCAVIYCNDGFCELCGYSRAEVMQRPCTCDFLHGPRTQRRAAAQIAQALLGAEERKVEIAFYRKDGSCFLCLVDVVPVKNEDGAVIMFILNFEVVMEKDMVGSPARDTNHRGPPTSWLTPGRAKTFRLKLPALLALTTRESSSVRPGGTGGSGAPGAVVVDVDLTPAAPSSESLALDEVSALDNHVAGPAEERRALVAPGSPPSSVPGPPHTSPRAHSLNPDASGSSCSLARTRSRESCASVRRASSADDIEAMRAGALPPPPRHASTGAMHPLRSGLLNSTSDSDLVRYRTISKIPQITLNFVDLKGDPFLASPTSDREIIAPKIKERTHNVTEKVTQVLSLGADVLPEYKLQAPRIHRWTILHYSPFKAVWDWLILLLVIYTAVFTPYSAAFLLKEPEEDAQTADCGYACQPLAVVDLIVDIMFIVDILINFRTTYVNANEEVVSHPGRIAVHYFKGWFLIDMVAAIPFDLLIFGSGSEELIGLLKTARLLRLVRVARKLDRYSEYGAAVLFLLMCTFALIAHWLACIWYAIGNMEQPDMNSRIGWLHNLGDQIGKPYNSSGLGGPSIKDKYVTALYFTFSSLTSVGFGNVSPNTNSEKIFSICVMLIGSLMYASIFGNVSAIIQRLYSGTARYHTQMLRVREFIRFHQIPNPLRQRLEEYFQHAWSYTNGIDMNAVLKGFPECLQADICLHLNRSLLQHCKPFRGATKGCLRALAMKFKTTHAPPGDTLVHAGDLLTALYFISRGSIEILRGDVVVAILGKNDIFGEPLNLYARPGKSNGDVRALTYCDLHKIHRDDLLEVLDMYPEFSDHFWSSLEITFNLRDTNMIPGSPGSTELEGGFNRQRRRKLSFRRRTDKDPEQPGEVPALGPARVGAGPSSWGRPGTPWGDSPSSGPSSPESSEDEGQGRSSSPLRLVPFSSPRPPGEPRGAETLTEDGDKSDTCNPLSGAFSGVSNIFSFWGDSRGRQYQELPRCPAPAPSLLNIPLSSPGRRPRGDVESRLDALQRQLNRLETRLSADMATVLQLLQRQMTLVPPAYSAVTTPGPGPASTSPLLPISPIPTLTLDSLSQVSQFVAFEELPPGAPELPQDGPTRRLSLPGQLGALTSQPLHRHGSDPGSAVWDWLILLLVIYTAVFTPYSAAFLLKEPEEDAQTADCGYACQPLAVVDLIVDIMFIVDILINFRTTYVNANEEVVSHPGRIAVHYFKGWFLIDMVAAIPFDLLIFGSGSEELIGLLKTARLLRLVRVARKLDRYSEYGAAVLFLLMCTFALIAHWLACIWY
Method: as §1, §2, §3, §4, §5, §6, §7, §8, §9

SMILES | IC50 [1] [µM] | IC50 [2] [µM] | melting point [°C]
Cc1ccc2c(c1)/C(=N/N1CC(=O)N(CCCCN3CCCCC3)C1=O)CCO2 [Ia example 7, 1-[4-(2,3-dihydro-6-methyl)benzopyran]imino-3-(4-piperidine) butyl-2,4-imidazole dione] | 18.9 | 22 | 
CCOc1ccc2c(c1)/C(=N/N1CC(=O)N(CCCCN3CCCCC3)C1=O)CCO2 [Ib example 5, 1-[4-(2,3-dihydro-6-ethoxy)benzopyran]imino-3-(4-piperidine) butyl-2,4-imidazole dione] | 1.04 | 0.45 | 
Cc1ccc2c(c1)/C(=N/N1CC(=O)N(CCCN3CCN(C)CC3)C1=O)CCO2 [Ia example 9, 1-[4-(2,3-dihydro-6-methyl)benzopyran]imino-3-[3-(4-methylpiperazine-1-)propyl]-2,4-imidazole dione difumarate] | 0.304 | 0.619 | 
CCCOc1ccc2c(c1)/C(=N/N1CC(=O)N(CCCCN3CCCCC3)C1=O)CCO2 [Ib example 6, 1-[4-(2,3-dihydro-6-propoxy-)benzopyran]imino-3-(4-piperidine) butyl-2,4-imidazole dione] | 0.0032 | 0.4 | 
CN1CCN(CCCN2C(=O)CN(N=C3CCOc4ccc(Cl)cc43)C2=O)CC1 [Ia example 10, 1-[4-(2,3-dihydro-6-chlorine)benzopyran]imino-3-[3-(4-methylpiperazine-1-yl)propyl]-2,4-imidazole dione difumarate] | 0.0058 | 3.87 | 
CCCCOc1ccc2c(c1)/C(=N/N1CC(=O)N(CCCCN3CCCCC3)C1=O)CCO2 [Ib example 7, 1-[4-(2,3-dihydro-6-butoxy)benzopyran]imino-3-(4-piperidine) butyl-2,4-imidazole dione] | 1.03 | 0.0174 | 
COc1ccc2c(c1)/C(=N/N1CC(=O)N(CCCCN3CCN(C)CC3)C1=O)CCO2.O=C(O)/C=C/C(=O)O [Ia example 1, 1-[4-(2,3-dihydro-6-methoxy)benzopyran]imino-3-[4-(methyl-1-piperazine)butyl]-2,4-imidazole dione difumarate] | 0.65 | 1.01 | 208 to 210
COc1ccc2c(c1)/C(=N/N1CC(=O)N(CCCN3CCN(C)CC3)C1=O)CCO2 [Ia example 8, 1-[4-(2,3-dihydro-6-methoxy)benzopyran]imino-3-[3-(4-methylpiperazine-1-yl)propyl]-2,4-imidazole dione difumarate] | 0.0019 | 0.54 | 
CCCOc1ccc2c(c1)/C(=N/N1CC(=O)N(CCCCN3CCN(C)CC3)C1=O)CCO2.O=C(O)/C=C/C(=O)O [Ib example 3, 1-[4-(2,3-dihydro-6-propoxy-)benzopyran]imino-3-[4-(methyl-1-piperazine)butyl]-2,4-imidazole dione difumarate] | 1.28 | 11.8 | 218 to 220
CCOc1ccc2c(c1)/C(=N/N1CC(=O)N(CCCN3CCN(C)CC3)C1=O)CCO2 [Ib example 9, 1-[4-(2,3-dihydro-6-ethoxy)benzopyran]imino-3-[3-(4-methylpiperazine-1-yl)propyl]-2,4-imidazole dione difumarate] | 0.0269 | 4.34 | 
CN1CCN(CCCCN2C(=O)CN(/N=C3\CCOc4ccc(O)cc43)C2=O)CC1.O=C(O)/C=C/C(=O)O |  |  | 203 to 205
COc1ccc2c(c1)/C(=N/N1CC(=O)N(CCCCN3CCCCC3)C1=O)CCO2 [Ia example 5, 1-[4-(2,3-dihydro-6-methoxy)benzopyran]imino-3-(4-piperidine) butyl-2,4-imidazole dione] | 22 | 7.47 | 
Cc1ccc2c(c1)/C(=N/N1CC(=O)N(CCCCN3CCN(C)CC3)C1=O)CCO2.O=C(O)/C=C/C(=O)O |  |  | 231 to 233
CCOc1ccc2c(c1)/C(=N/N1CC(=O)N(CCCCN3CCN(C)CC3)C1=O)CCO2.O=C(O)/C=C/C(=O)O |  |  | 225 to 227
O=C1CN(/N=C2\CCOc3ccc(Cl)cc32)C(=O)N1CCCCN1CCCCC1 [Ia example 6, 1-[4-(2,3-dihydro-6-chloro)benzopyran]imino-3-(4-piperidine) butyl-2,4-imidazole dione] | 61 | 0.0062 | 
CCCOc1ccc2c(c1)/C(=N/N1CC(=O)N(CCCN3CCN(C)CC3)C1=O)CCO2 [Ib example 10, 1-[4-(2,3-dihydro-6-propoxy-)benzopyran]imino-3-[3-(4-methylpiperazine-1-yl)propyl]-2,4-imidazole dione difumarate] | 0.0095 | 0.106 | 
